Experimental data published in patent publication US10363257B2 (ZENITH EPIGENETICS LTD., priority 2013, dated 2019).
Counter-ions that a name gives are not always drawn.

Experiments:
human AML MV-4-11 cells = experiment: Inhibition of cell proliferation in MV4-11 cells (CellTiter Aqueous One); assay type: cell-based; details: for IC50: MV4-11, 72 h
Outline: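 IC50 values come from blank-corrected proliferation relative to DMSO controls, read as 490 nm absorbance 3–4 h after CellTiter Aqueous One addition. Before that, cells seeded at 5×10^4/well were exposed for 72 h (37° C, 5% CO2) to triplicate two-fold compound dilutions spanning 30–0.2 μM.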

hIL-6 mRNA = experiment: Inhibition of hIL-6 mRNA transcription in LPS-stimulated U937 cells; assay type: cell-based; details: Homo sapiens, U-937; PMA-differentiated U937 cells, 1 h pretreatment, 1 ug/mL LPS stimulation, 3 h; read-out: IL-6 activity (Inhibition of hIL-6 mRNA Transcription)
Outline: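 U937 cells differentiated 3 days with 60 ng/mL PMA, pretreated 1 h with compound (0.1% DMSO), then stimulated with 1 ug/mL E. coli LPS for 3 h at 37 °C. hIL-6 mRNA measured by one-step TaqMan RT-qPCR, normalized to cyclophilin. Fold expression relative to control; triplicate wells.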

c-myc = experiment: Inhibition of c-myc expression (mRNA, real-time PCR) in MV4-11 cells; assay type: cell-based; details: Human AML MV4-11 cells, 3 h, cMYC mRNA
Outline: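 One-step TaqMan qPCR of cMYC, normalized to an internal control with Cyclophilin probes run, gave fold expression versus DMSO (0.1%) control. Samples: triplicate MV4-11 wells exposed 3 h at 37° C to rising compound concentrations in IMDM with 10% FBS.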

[1] = biological target: T1, Brd4 bromodomain 1 (BRD4(1)) (Homo sapiens, UniProt O60885); experiment: Inhibition of tetra-acetylated histone H4 binding to Brd4 bromodomain 1 (TR-FRET); details: tetra-acetylated histone H4 peptide, first bromodomain of Brd4
T1 construct: made in house; host or cells: E. coli BL21(DE3)
Outline: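 Serially diluted compound (0.2% DMSO) incubated 2 h at room temperature with 200 nM N-His BRD4 bromodomain 1 and 25-50 nM biotinylated tetra-acetyl H4 peptide, detected via Eu-streptavidin/XL665 anti-His. Loss of 665 nm relative to 620 nm signal gave IC50 from dose-response.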

| Compound | Cell Proliferation activity (human AML MV-4-11 cells; 72 h) | IC50 (hIL-6 mRNA) | IC50 (c-myc) | IC50 [1] | IC50 (human AML MV-4-11 cells) |
| --- | --- | --- | --- | --- | --- |
| Cc1noc(C)c1-c1cc2c(ccn2Cc2ccccc2)nc1OC=O [Example Compound 37, 1-benzyl-6-(3,5-dimethylisoxazol-4-yl)-1H-pyrrolo[3,2-b]pyridin-5-yl formate] | Not active | 3000 to 30000 nM | 3000 to 30000 nM | 300 to 3000 nM |  |
| Cc1noc(C)c1-c1ccc2c(n1)[nH]c(=O)n2Cc1ccccc1 [Example Compound 3, 1-Benzyl-5-(3,5-dimethylisoxazol-4-yl)-1H-imidazo[4,5-b]pyridin-2(3H)-one] |  | 3000 to 30000 nM | 3000 to 30000 nM | 300 to 3000 nM | 3000 to 30000 nM |
| Cc1noc(C)c1-c1cc(N)c2nc(NCc3cccnc3)n(Cc3ccccc3)c2c1 [compound 157, 1-benzyl-6-(3,5-dimethylisoxazol-4-yl)-N2-(pyridin-3-ylmethyl)-1H-benzo[d]imidazole-2,4-diamine] |  | ≤ 300 nM | ≤ 300 nM | ≤ 300 nM | ≤ 300 nM |
| CCNc1nc2c(NC(C)=O)cc(-c3c(C)noc3C)cc2n1Cc1ccccc1 [compound 119, N-(1-benzyl-6-(3,5-dimethylisoxazol-4-yl)-2-(ethylamino)-1H-benzo[d]imidazol-4-yl)acetamide] |  | ≤ 300 nM | ≤ 300 nM | ≤ 300 nM | ≤ 300 nM |
| Cc1noc(C)c1-c1cnc2c(C=O)cn(Cc3ccccc3)c2c1 [Example Compound 35, 1-benzyl-6-(3,5-dimethylisoxazol-4-yl)-1H-pyrrolo[3,2-b]pyridine-3-carbaldehyde] |  | 300 to 3000 nM | 300 to 3000 nM | ≤ 300 nM | 300 to 3000 nM |
| Cc1noc(C)c1-c1cnc2c(c1)ncn2Cc1ccc(F)cc1 [Example Compound 44, 4-(3-(4-fluorobenzyl)-3H-imidazo[4,5-b]pyridin-6-yl)-3,5-dimethylisoxazole] |  | 300 to 3000 nM | 3000 to 30000 nM | 300 to 3000 nM | 3000 to 30000 nM |
| Cc1noc(C)c1-c1cnc2nc(C)n(Cc3ccc(O)cc3)c2c1 [compound 84, 4-((6-(3,5-dimethylisoxazol-4-yl)-2-methyl-1H-imidazo[4,5-b]pyridin-1-yl)methyl)phenol] |  | 300 to 3000 nM | 300 to 3000 nM | ≤ 300 nM | 300 to 3000 nM |
| Cc1noc(C)c1-c1cnc2nc(C)n(C(C)c3ccccc3)c2c1 (stereo not drawn) [compound 108, 3,5-dimethyl-4-(2-methyl-1-(1-phenylethyl)-1H-imidazo[4,5-b]pyridin-6-yl)isoxazole] |  | ≤ 300 nM | 300 to 3000 nM | ≤ 300 nM | 300 to 3000 nM |
| Cc1noc(C)c1-c1cc([N+](=O)[O-])c2[nH]c(=O)n(Cc3ccc(Cl)cc3)c2c1 [compound 91, 1-(4-chlorobenzyl)-6-(3,5-dimethylisoxazol-4-yl)-4-nitro-1H-benzo[d]imidazol-2(3H)-one] |  | 300 to 3000 nM | 300 to 3000 nM | ≤ 300 nM | 3000 to 30000 nM |
| Cc1noc(C)c1-c1cnc2nc(N3CCC3)n(Cc3ccccc3)c2c1 [compound 123, 4-(2-(azetidin-1-yl)-1-benzyl-1H-imidazo[4,5-b]pyridin-6-yl)-3,5-dimethylisoxazole] |  | ≤ 300 nM | ≤ 300 nM | ≤ 300 nM | 300 to 3000 nM |
| COc1cc(-c2c(C)noc2C)cc2c1nc(C)n2Cc1ccccc1 [Example Compound 66, 4-(1-benzyl-4-methoxy-2-methyl-1H-benzo[d]imidazol-6-yl)-3,5-dimethylisoxazole] |  | 300 to 3000 nM | 300 to 3000 nM | ≤ 300 nM | 300 to 3000 nM |
| Cc1noc(C)c1-c1cnc2nc(NCc3cccc(C#N)c3)n(Cc3ccccc3)c2c1 [compound 217, 3-(((1-benzyl-6-(3,5-dimethylisoxazol-4-yl)-1H-imidazo[4,5-b]pyridin-2-yl)amino)methyl)benzonitrile] |  | ≤ 300 nM | ≤ 300 nM | ≤ 300 nM | 300 to 3000 nM |
| CNc1nc2ncc(-c3c(C)noc3C)cc2n1Cc1ccccc1 [compound 146, 1-benzyl-6-(3,5-dimethylisoxazol-4-yl)-N-methyl-1H-imidazo[4,5-b]pyridin-2-amine] |  | ≤ 300 nM | ≤ 300 nM | ≤ 300 nM | ≤ 300 nM |
| Cc1noc(C)c1-c1cc(N)c2nc(C)n([C@@H](C)c3ccccc3)c2c1 [compound 143, (S)-6-(3,5-dimethylisoxazol-4-yl)-2-methyl-1-(1-phenylethyl)-1H-benzo[d]imidazol-4-amine] |  | ≤ 300 nM | ≤ 300 nM | ≤ 300 nM | ≤ 300 nM |
| Cc1noc(C)c1-c1cnc2c(c1)ncn2Cc1ccccc1 [Example Compound 4, 4-(3-Benzyl-3H-imidazo[4,5-b]pyridin-6-yl)-3,5-dimethylisoxazole] |  | 300 to 3000 nM | 300 to 3000 nM | 300 to 3000 nM | 3000 to 30000 nM |
| Cc1noc(C)c1-c1cnc2nc(NC3CCOCC3)n(CC3CCC3)c2c1 [compound 223, 1-(cyclobutylmethyl)-6-(3,5-dimethylisoxazol-4-yl)-N-(tetrahydro-2H-pyran-4-yl)-1H-imidazo[4,5-b]pyridin-2-amine] |  | 300 to 3000 nM | ≤ 300 nM | ≤ 300 nM | 300 to 3000 nM |
| CCNc1nc2ncc(-c3c(C)noc3C)cc2n1C(C)c1ccccc1 (stereo not drawn) [compound 113, 6-(3,5-dimethylisoxazol-4-yl)-N-ethyl-1-(1-phenylethyl)-1H-imidazo[4,5-b]pyridin-2-amine] |  | ≤ 300 nM | ≤ 300 nM | ≤ 300 nM | ≤ 300 nM |
| COc1ccc(Cn2c(=O)[nH]c3c([N+](=O)[O-])cc(-c4c(C)noc4C)cc32)cc1 [compound 103, 6-(3,5-dimethylisoxazol-4-yl)-1-(4-methoxybenzyl)-4-nitro-1H-benzo[d]imidazol-2(3H)-one] |  | 300 to 3000 nM | 300 to 3000 nM | ≤ 300 nM | 300 to 3000 nM |
| Cc1noc(C)c1-c1cc(N)c2nc(N3CCN(C)CC3)n(Cc3ccccc3)c2c1 [compound 141, 1-benzyl-6-(3,5-dimethylisoxazol-4-yl)-2-(4-methylpiperazin-1-yl)-1H-benzo[d]imidazol-4-amine] |  | ≤ 300 nM | ≤ 300 nM | ≤ 300 nM | ≤ 300 nM |
| Cc1noc(C)c1-c1cnc2nc(C)n(Cc3ccncc3)c2c1 [compound 74, 3,5-dimethyl-4-(2-methyl-1-(pyridin-4-ylmethyl)-1H-imidazo[4,5-b]pyridin-6-yl)isoxazole] |  | 300 to 3000 nM | 3000 to 30000 nM | 300 to 3000 nM | 3000 to 30000 nM |
| CNc1cc(-c2c(C)noc2C)cc2c1ncn2Cc1ccc(F)cc1 [Example Compound 28, 6-(3,5-dimethylisoxazol-4-yl)-1-(4-fluorobenzyl)-N-methyl-1H-benzo[d]imidazol-4-amine] |  | 300 to 3000 nM | 300 to 3000 nM | ≤ 300 nM | 300 to 3000 nM |
| Cc1noc(C)c1-c1cnc2cnn(Cc3ccc(Cl)cc3)c2c1 [compound 93, 4-(1-(4-chlorobenzyl)-1H-pyrazolo[4,3-b]pyridin-6-yl)-3,5-dimethylisoxazole] |  | 300 to 3000 nM | 3000 to 30000 nM | ≤ 300 nM | 3000 to 30000 nM |
| Cc1noc(C)c1-c1cnc2nc(N3CCOCC3)n(Cc3ccccc3)c2c1 [compound 114, 4-(1-benzyl-6-(3,5-dimethylisoxazol-4-yl)-1H-imidazo[4,5-b]pyridin-2-yl)morpholine] |  | 300 to 3000 nM | 300 to 3000 nM | ≤ 300 nM | 300 to 3000 nM |
| Cc1noc(C)c1-c1cnc2c([N+](=O)[O-])cn(Cc3ccccc3)c2c1 [Example Compound 39, 4-(1-benzyl-3-nitro-1H-pyrrolo[3,2-b]pyridin-6-yl)-3,5-dimethylisoxazole] |  | 300 to 3000 nM | 300 to 3000 nM | ≤ 300 nM | 300 to 3000 nM |
| Cc1noc(C)c1-c1cc(N)c2nc(N3CCC3)n(Cc3ccccc3)c2c1 [compound 97, 2-(azetidin-1-yl)-1-benzyl-6-(3,5-dimethylisoxazol-4-yl)-1H-benzo[d]imidazol-4-amine] |  | ≤ 300 nM | ≤ 300 nM | ≤ 300 nM | ≤ 300 nM |
| Cc1noc(C)c1-c1cnc2c(N)cn(Cc3ccccc3)c2c1 [compound 100, 1-benzyl-6-(3,5-dimethylisoxazol-4-yl)-1H-pyrrolo[3,2-b]pyridin-3-amine] |  | 300 to 3000 nM | 300 to 3000 nM | ≤ 300 nM | 300 to 3000 nM |
| Cc1noc(C)c1-c1cc(N)c2nc(C)n(CC3CCCC3)c2c1 [compound 133, 1-(cyclopentylmethyl)-6-(3,5-dimethylisoxazol-4-yl)-2-methyl-1H-benzo[d]imidazol-4-amine] |  | ≤ 300 nM | ≤ 300 nM | ≤ 300 nM | 300 to 3000 nM |
